Entries after “also recorded” stand apart in the source; their conditions may differ.
Tests used:
Assay type in all cases: in vivo, human
[1] = test system: hepatitis B virus (HBV); assay: Effect of oral FIAU on plasma HBV DNA and HBV DNA polymerase in HIV-infected patients with chronic hepatitis B
Description: Effects on hepatitis were evaluated principally by changes in HBV DNA and viral DNA polymerase. Secondary markers were surface antigen and e antigen. The hepatitis tests were done at Baseline and on Days 3, 7, 14, 21 (7 days post-treatment) and 42 (28 days post-treatment).
Of the 13 "tolerance" patients, e.g., non-hepatitis patients, enrolled, all received the study drug and all are included in the safety analysis. […] They had received a single dose of the study drug, and has, therefore, been included in the safety analysis, but excluded from the efficacy analysis. All of the remaining hepatitis patients had sufficient baseline levels of HBV DNA (>20 pg/ml) and viral DNA polymerase (>300 cpm) in their serum to be useful for determining changes associated with FIAU dosing and all completed the full two weeks of dosing. Therefore, the remaining six hepatitis patients were included in both the safety and efficacy analyses.
The results of clinical investigations conducted at submilligram per kilogram daily doses of FIAU are presented below. […]

[2] = Peak and trough plasma levels of FIAU and FAU by HPLC; settings: for concentration at 24 h: FIAU trough plasma concentration
Description: Additionally at Baseline, archive plasma samples were taken.

[3] = Adverse Experience Summary (Table II), HIV-infected patients
Description: A summary of the adverse effects experienced by some of the patients involved in the various dosage studies conducted are presented in Table II, attached hereto. Where no entry is given, no adverse experience was observed.

[4] = 0.1 mg/kg-day, two patients with HBV DNA under 1000 pg/ml
[5] = 0.5 mg/kg-day, four patients with entry HBV DNA <1000 pg/ml
[6] = human, in vivo, po, 1 mg/kg/day, 24 h

O=c1[nH]c(=O)n([C@@H]2O[C@H](CO)[C@@H](O)[C@@H]2F)cc1I [FIAU, 1-(2'-deoxy-2'-fluoro-β-D-arabinofuranosyl)-5-iodouracil]
average reduction of serum HBV DNA at Day 3 and One Week visits [1, 4]: 60% | average reduction of serum HBV DNA by end of therapy at two weeks [1, 4]: 93% | suppression of serum HBV DNA one week post-treatment [1, 4]: 86% | drop of HBV DNA by the end of therapy ([1]; 0.1 mg/kg-day, two patients with baseline over 1000 pg/ml): ≤ 25% | average HBV DNA level, percent of baseline, end of one week of dosing [1, 5]: less than 20% | average HBV DNA level, percent of baseline, end of two week treatment [1, 5]: less than 10% | drop of average serum HBV DNA after the first two days of therapy [1, 5]: 61% | suppression of average HBV DNA one month post-treatment [1, 5]: over 75% | drop of serum HBV DNA in one week of therapy ([1]; 0.5 mg/kg-day, single patient with baseline above 1000 pg/ml): 83% | effect on plasma HBV DNA and viral DNA polymerase levels ([1]; 1.0 mg/kg-day): rapid, consistent, profound and prolonged effect | surface antigen and e antigen status ([1]; 1.0 mg/kg-day): remained positive in all patients to date, with one reported seroreversion of e antigen in Patient 401 approximately 23 weeks post-treatment | continuing suppression of HBV DNA polymerase in serum ([1]; 1.0 mg/kg-day, five of the six patients): > 80% | clearing of HBV DNA from the plasma ([1]; 1.0 mg/kg-day, four weeks after therapy): two of these became totally negative; also recorded: Two showed a complete clearing of HBV DNA from the plasma | average decrease of HBV DNA between Baseline (Day 1) and Day 3 ([1]; 1.0 mg/kg-day, six patients): over 70% | reduction in plasma HBV DNA by the end of therapy ([1]; 1.0 mg/kg-day, two weeks, five of the six patients): more than 90% | FIAU peak plasma concentration, range maximum ([2]; 1.0 mg/kg-day, steady state, Days 3-14): 1.66 µg/mL | accumulation in the plasma with continued dosing ([2]; FIAU 1.0 mg/kg-day, 14 days): Neither FIAU nor FAU tended to accumulate; also recorded: Neither compound tended to accumulate | FIAU trough plasma value, typical ([2]; human, in vivo, po, 1 mg/kg/day): under 0.2 μg/ml | FIAU peak plasma concentration, mean [2, 6]: 0.58 µg/mL | FIAU trough plasma concentration, mean [2, 6]: 0.05 µg/mL | Cmax at 24 h ([2]; human, in vivo, po, 1 mg/kg/day, FIAU peak plasma concentration, mean): 580 ng/mL | Cmax at 2 h ([2]; human, in vivo, po, 1 mg/kg/day, FIAU peak plasma value at steady state, average): ~1000 ng/mL | concentration at 24 h ([2]; human, in vivo, po, 1 mg/kg/day, mean): 50 ng/mL | concentration at 24 h ([2]; human, in vivo, po, 1 mg/kg/day, range maximum): 130 ng/mL | Incidence: ALT elevation, moderate (2.5-5.0x) ([3]; 0.1 mg/kg-day): 2/4 | Incidence: ALT elevation, severe (>5x) ([3]; 0.1 mg/kg-day): 1/4 | Incidence: AST elevation, moderate (2.5-5.0x) ([3]; 0.1 mg/kg-day): 2/4 | Incidence: AST elevation, severe (>5x) ([3]; 0.1 mg/kg-day): 1/4 | Incidence: Fatigue, moderate ([3]; 0.1 mg/kg-day): 1/4 | Incidence: Hyperbilirubemia, mild ([3]; 0.1 mg/kg-day): 2/4 | Incidence: Hypercalcemia, mild ([3]; 0.1 mg/kg-day): 1/4 | Incidence: Hypocalcemia, mild ([3]; 0.1 mg/kg-day): 1/4 | Incidence: Hypoglycemia, mild ([3]; 0.1 mg/kg-day): 1/4 | Incidence: Hyponatremia, mild ([3]; 0.1 mg/kg-day): 1/4 | Incidence: ALT elevation, mild (1.25-2.5x) ([3]; 0.5 mg/kg-day): 3/10 | Incidence: ALT elevation, severe (>5x) ([3]; 0.5 mg/kg-day): 2/10 | Incidence: AST elevation, mild (1.25-2.5x) ([3]; 0.5 mg/kg-day): 3/10 | Incidence: AST elevation, moderate (2.5-5.0x) ([3]; 0.5 mg/kg-day): 1/10 | Incidence: AST elevation, severe (>5x) ([3]; 0.5 mg/kg-day): 2/10 | Incidence: Diarrhea, mild ([3]; 0.5 mg/kg-day): 1/10 | Incidence: Disoriented, mild ([3]; 0.5 mg/kg-day): 1/10 | Incidence: Fatigue, mild ([3]; 0.5 mg/kg-day): 3/10 | Incidence: Fatigue, moderate ([3]; 0.5 mg/kg-day): 1/10 | Incidence: Headache, mild ([3]; 0.5 mg/kg-day): 2/10 | Incidence: Headache, moderate ([3]; 0.5 mg/kg-day): 1/10 | Incidence: Hemauria, moderate ([3]; 0.5 mg/kg-day): 1/10 | Incidence: Hypophosphatemia, moderate ([3]; 0.5 mg/kg-day): 1/10 | Incidence: Nausea, mild ([3]; 0.5 mg/kg-day): 3/10 | Incidence: Nausea, moderate ([3]; 0.5 mg/kg-day): 1/10 | Incidence: Proteinuria, mild ([3]; 0.5 mg/kg-day): 1/10 | Incidence: Stomatitis, moderate ([3]; 0.5 mg/kg-day): 1/10 | Incidence: Vomiting, mild ([3]; 0.5 mg/kg-day): 2/10 | Incidence: Weakness, mild ([3]; 0.5 mg/kg-day): 2/10 | Incidence: ALT elevation, mild (1.25-2.5x) ([3]; 1.0 mg/kg-day): 4/9 | Incidence: ALT elevation, moderate (2.5-5.0x) ([3]; 1.0 mg/kg-day): 1/9 | Incidence: ALT elevation, severe (>5x) ([3]; 1.0 mg/kg-day): 3/9 | Incidence: AST elevation, mild (1.25-2.5x) ([3]; 1.0 mg/kg-day): 4/9 | Incidence: AST elevation, moderate (2.5-5.0x) ([3]; 1.0 mg/kg-day): 1/9 | Incidence: AST elevation, severe (>5x) ([3]; 1.0 mg/kg-day): 3/9 | Incidence: Abdominal Cramping, moderate ([3]; 1.0 mg/kg-day): 1/9 | Incidence: Constipation, mild ([3]; 1.0 mg/kg-day): 1/9 | Incidence: Decreases sensations, mild ([3]; 1.0 mg/kg-day): 1/9 | Incidence: Diarrhea, mild ([3]; 1.0 mg/kg-day): 2/9 | Incidence: Difficulty focusing, mild ([3]; 1.0 mg/kg-day): 1/9 | Incidence: Dizziness, mild ([3]; 1.0 mg/kg-day): 1/9 | Incidence: Fatigue, mild ([3]; 1.0 mg/kg-day): 2/9 | Incidence: Fatigue, moderate ([3]; 1.0 mg/kg-day): 1/9 | Incidence: Fatigue, severe ([3]; 1.0 mg/kg-day): 1/9 | Incidence: Headache, mild ([3]; 1.0 mg/kg-day): 1/9 | Incidence: Headache, severe ([3]; 1.0 mg/kg-day): 1/9 | Incidence: Heartbum, mild ([3]; 1.0 mg/kg-day): 1/9 | Incidence: Light Stools, mild ([3]; 1.0 mg/kg-day): 1/9 | Incidence: Nausea, mild ([3]; 1.0 mg/kg-day): 6/9 | Incidence: Nausea, moderate ([3]; 1.0 mg/kg-day): 1/9 | Incidence: Paresibesia (extremities), mild ([3]; 1.0 mg/kg-day): 1/9 | Incidence: Vomiting, mild ([3]; 1.0 mg/kg-day): 1/9 | Incidence: Weakness, mild ([3]; 1.0 mg/kg-day): 2/9 | Incidence: Weakness, moderate ([3]; 1.0 mg/kg-day): 1/9 | Incidence: myositis, severe ([3]; 1.0 mg/kg-day): 1/9

— patent publication US5432165A, “Methods for the treatment of infection caused by Hepatitis B virus (HBV)” (priority 1992, dated 1995)
